In publication PMC7893915, “Assessing cross-resistance within the pyrethroids in terms of their interactions with key cytochrome P450 enzymes and resistance in vector populations” (Parasites & Vectors, 2021):
“Also recorded” adds a separate entry of the source. Read-outs that look alike come from different tables or passages of the source.

Tests used:
CYP6P9a [1] = conditions: read-out: IC50 CYP6P9a, inhibition of diethoxyfluorescein metabolism, cited from earlier work
CYP6P3 = conditions: cited from earlier work
CYP6P2 = conditions: read-out: IC50 CYP6P2, inhibition of diethoxyfluorescein metabolism, cited from earlier work
Gambiae Complex = conditions: WHO Bioassay 1998, cited from earlier work
Anopheles arabiensis = conditions: Sudan, WHO Bioassay 1998, cited from earlier work
[2] = system: CYP6M2, CYP6P3 and CYP6P9a; test: Pyrethroid metabolism (insecticide depletion), across CYP6M2, CYP6P3 and CYP6P9a; format: in vitro ADME, Anopheles gambiae and An. funestus; conditions: for vulnerability for metabolic attack by the three enzymes, rank in words: CYP6P3, CYP6M2 and CYP6P9a, among the six pyrethroids
Source text: In this study, the half maximal inhibitory concentration (IC50), which provides a value for inhibition of each P450 by each pyrethroid (also referred to as ‘binding affinity’), and the percentage depletion, which gives a value for metabolism of each pyrethroid by each P450 (also referred to as vulnerability to metabolic attack), were both included as parameters to establish a P450s structural activity relationship model. This model was used to understand both the chemistry of the pyrethroids and the interaction with mosquito P450s that function as monooxygenases in metabolic resistance, to predict cross-resistance liabilities in vivo. […] A low percentage depletion indicates low metabolism of the pyrethroid, which means that it may be less vulnerable to resistance mediated by P450s.
The values for percentage depletion (metabolism) of each pyrethroid by three of the enzymes CYP6M2, CYP6P3 and CYP6P9a, which were expressed in a single plasmid construct, were also extracted from the same sources and used for the comparative analysis.

Anopheles funestus = conditions: F1, house resting indoors, WHO Bioassay 1998, cited from earlier work
CYP6P9a [3] = conditions: Incubation time 2h; mean ± SD; ref [38], [41]; cited from earlier work
CYP6Z2 = biological target: T1, CYP6Z2 (Anopheles gambiae, UniProt Q7PNB5); test: Inhibition screening of pyrethroids, diethoxyfluorescein, CYP6Z2; format: biochemical
T1 sequence (Q7PNB5 1-492): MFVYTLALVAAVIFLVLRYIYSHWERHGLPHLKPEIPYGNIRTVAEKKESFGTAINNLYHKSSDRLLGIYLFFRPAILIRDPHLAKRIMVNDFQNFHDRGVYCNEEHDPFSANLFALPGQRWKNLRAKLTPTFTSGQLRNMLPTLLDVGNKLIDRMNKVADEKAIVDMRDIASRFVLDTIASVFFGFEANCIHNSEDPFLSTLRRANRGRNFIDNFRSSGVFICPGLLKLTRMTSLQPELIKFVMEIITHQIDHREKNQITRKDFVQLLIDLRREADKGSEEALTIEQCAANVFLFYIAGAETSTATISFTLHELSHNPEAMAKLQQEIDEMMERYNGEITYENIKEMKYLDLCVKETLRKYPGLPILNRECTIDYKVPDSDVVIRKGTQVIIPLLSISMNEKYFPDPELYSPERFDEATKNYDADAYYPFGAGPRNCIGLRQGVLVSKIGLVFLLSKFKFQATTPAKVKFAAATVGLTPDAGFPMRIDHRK
T1 sequence (Q86QH5 1-679 partner): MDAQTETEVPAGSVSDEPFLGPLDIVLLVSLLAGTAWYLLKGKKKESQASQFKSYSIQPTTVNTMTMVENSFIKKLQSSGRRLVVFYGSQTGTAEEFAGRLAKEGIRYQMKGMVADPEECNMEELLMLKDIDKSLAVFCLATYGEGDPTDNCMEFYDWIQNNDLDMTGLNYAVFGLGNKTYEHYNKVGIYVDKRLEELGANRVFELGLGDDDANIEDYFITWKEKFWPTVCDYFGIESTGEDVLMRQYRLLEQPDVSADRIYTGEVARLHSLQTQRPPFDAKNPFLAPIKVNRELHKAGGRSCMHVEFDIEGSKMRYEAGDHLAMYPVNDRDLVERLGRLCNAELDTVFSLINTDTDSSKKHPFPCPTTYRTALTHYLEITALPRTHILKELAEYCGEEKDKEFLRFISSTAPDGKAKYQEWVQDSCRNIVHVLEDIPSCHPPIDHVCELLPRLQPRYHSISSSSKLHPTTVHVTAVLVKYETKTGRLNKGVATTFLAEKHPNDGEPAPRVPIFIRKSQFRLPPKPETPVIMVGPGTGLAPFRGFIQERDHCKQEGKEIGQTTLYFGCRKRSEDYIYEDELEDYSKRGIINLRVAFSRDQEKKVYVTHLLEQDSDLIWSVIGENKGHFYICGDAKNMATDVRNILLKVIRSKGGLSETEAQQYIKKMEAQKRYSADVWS

[4] = footnote a, ref Yunta et al. 2016[8]
[5] = ID 100045, F0, larval collection, 7/2010-12/2010, Ahero Division, Kenya, ref Ochomo E et al. Med Vet Entomol. 2013;27(2):156-64
[6] = ID 100117, F1, house resting indoors, 4/2010, VK2, Burkina Faso, ref Kwiatkowska RM et al. Gene. 2013;519(1):98-106
[7] = ID 100127, F1, house resting indoors, 4/2010, VK6, Burkina Faso, ref Kwiatkowska RM et al. Gene. 2013;519(1):98-106
[8] = ID 100156, F0, larval collection, 5/2009-4/2010, Chano, Ethiopia, ref Massebo F et al. Parasites Vectors. 2013;6
[9] = ID 100160, F0, larval collection, 10/2008-5/2009, Nkolondom, Cameroon, ref Nwane P et al. Parasites Vectors. 2013;6
[10] = ID 200047, F1, larval collection, 9/2007-11/2007, Elmaygoma, ref Seidahmed OME et al. Eastern Mediterranean Health Journal. 2012;18(7):769-76
[11] = mean ± SD across CYP6M2, CYP6P3, CYP6P9a
[12] = ID 200044, 4/2009-4/2010, Kalungama, Malawi, ref Wondji CS et al. Proc Natl Acad Sci U S A. 2012;109(47):19063-70
[13] = ID 200045, 4/2009-4/2010, Chinkole, Malawi, ref Wondji CS et al. Proc Natl Acad Sci U S A. 2012;109(47):19063-70
[14] = ID 200048, 3/2000-7/2002, Catembe, Mozambique, ref Casimiro S et al. J Med Entomol. 2006;43(2):267-75
[15] = ID 200117, 4/2009-11/2009, Tororo, Uganda, ref Morgan JC et al. PLoS One. 2010;5(7)
[16] = footnote b, ref Yunta et al. 2019[10]
[17] = read-out: IC50 CYP6P3, inhibition of diethoxyfluorescein metabolism, footnote b, ref Yunta et al. 2019[10]

| Structure (SMILES) | IC50 (CYP6P9a [1]; [4]) [µM] | IC50 (CYP6P2; [4]) [µM] | mortality (Gambiae Complex; [5]) | mortality (Gambiae Complex; [6]) | mortality (Gambiae Complex; [7]) | mortality (Gambiae Complex; [8]) | mortality (Gambiae Complex; [9]) | mortality (Anopheles arabiensis; [10]) | % Insecticide depletion Mean across P450s [2, 11] [%] | mortality (Anopheles funestus; [12]) | mortality (Anopheles funestus; [13]) | mortality (Anopheles funestus; [14]) | mortality (Anopheles funestus; [15]) | % Insecticide depletion CYP6P9a (CYP6P9a [3]) [%] | vulnerability for metabolic attack by the three enzymes, rank in words [2] | IC50 (CYP6P9a [1]; [16]) [µM] | IC50 (CYP6P3; [17]) [µM] | IC50 (CYP6P2; [16]) [µM] | IC50 (CYP6Z2) [µM] | also measured |
| --- | --- | --- | --- | --- | --- | --- | --- | --- | --- | --- | --- | --- | --- | --- | --- | --- | --- | --- | --- | --- |
| CC1(C)[C@H](C(=O)O[C@H](C#N)c2cccc(Oc3ccccc3)c2)[C@@H]1C=C(Br)Br [Deltamethrin, deltamethrin] | 2.6 | 5 | 92.31 | 37.2 | 18.8 | 47 | 95 | 99.5 | 83.5 ± 24.2 | 51.2 | 68.5 | 55.2 | 39 |  |  |  |  |  |  | IC50 (CYP6P3; read-out: IC50 CYP6P3, inhibition of diethoxyfluorescein metabolism, footnote a, ref Yunta et al. 2016[8]): 3.2 µM; mortality (Anopheles arabiensis; F0, larval collection, 10/2009-11/2009, El Managil, ref Abdalla H et al. Parasites Vectors. 2014;7:213): 92; mortality (Anopheles arabiensis; F0, larval collection, 10/2009-11/2009, Rufaa, ref Abdalla H et al. Parasites Vectors. 2014;7:213): 94; mortality (Anopheles arabiensis; F0, larval collection, 10/2009-11/2009, Wad El Hadad, ref Abdalla H et al. Parasites Vectors. 2014;7:213): 94; mortality (Anopheles arabiensis; F0, larval collection, 10/2010-11/2010, Wad El Hadad, ref Abdalla H et al. Parasites Vectors. 2014;7:213): 71; mortality (Anopheles arabiensis; F0, larval collection, 10/2010-11/2010, Wad Medani, ref Abdalla H et al. Parasites Vectors. 2014;7:213): 80 |
| CC1(C)C(C=C(Cl)Cl)C1C(=O)OCc1cccc(Oc2ccccc2)c1 (stereo not drawn) [Permethrin, permethrin] | 5.7 | 8.6 | 91.97 | 4.1 | 3 |  | 95 | 96 |  | 67.4 |  | 100 | 69 | 87.8 ± 0.7 | most vulnerable |  |  |  |  | IC50 (CYP6P3): 6.8 µM; % Insecticide depletion Mean across P450s ([2]; Anopheles gambiae and An. funestus): 82.1 ± 21.3% |
| CC1(C)[C@H](C(=O)O[C@H](C#N)c2cccc(Oc3ccccc3)c2)[C@@H]1/C=C(\Cl)C(F)(F)F (racemic) [λ-Cyhalothrin, λ-cyhalothrin] |  |  |  |  | 7.3 | 56 |  | 98.9 | 66.6 ± 17.0 | 34.3 | 60 | 59.3 |  | 67.1 ± 3.1 |  | 3.7 | 9.6 | 4.8 | 18.6 |  |
| Cc1c(COC(=O)[C@@H]2[C@H](/C=C(\Cl)C(F)(F)F)C2(C)C)cccc1-c1ccccc1 (racemic) [Bifenthrin, bifenthrin] |  |  |  |  |  |  |  |  | 56.3 |  |  |  |  | 53.4 ± 1.6 | lowest vulnerability | 8.5 | 3.5 | 10.7 | 20.7 |  |
| CCOc1ccc(C(C)(C)COCc2cccc(Oc3ccccc3)c2)cc1 [Etofenprox, etofenprox] |  |  |  |  |  |  |  |  | 89.0 ± 17.5 |  |  |  |  | 98.5 ± 0.2 | most vulnerable | 8.1 | 8.3 | 4.7 | 2.8 | metabolism in words ([2]; by CYP6P3, CYP6M2 and CYP6P9a): strongly metabolised; also recorded: most depleted |
